Measurements as given in patent publication US10292992B2, “Selective high-affinity polydentate ligands and methods of making such” (LAWRENCE LIVERMORE NATIONAL SECURITY, LLC, priority 2008, dated 2019).
“Also recorded” adds a separate entry of the source. Where two headings read alike, the source gives them in different places.

How the values were obtained:
[1] = tested on: Raji cells expressing HLA-DR10; assay: Whole cell binding assay with 111In-labeled SHAL; type: cell-based, human; conditions: for SHAL bound by Raji cells relative to parent SHAL: unwashed
Protocol: Raji human Burkitt's lymphoma B-cells (American Type Culture Collection, Manassas, Va.) were maintained in RPMI-1640 media supplemented with 10% fetal bovine serum, 2mM L-glutamine, 1 mM sodium pyruvate, 1% of a solution of nonessential amino acids (GIBCO #11140-050), and 100 units/ml of Penicillin G, 100 μg/ml Streptomycin, and 0.25 μg/ml of Amphotericin B at 37° C. in a humidified 5% CO2 atmosphere. Jurkat's cells (American Type Culture Collection, Manassas, Va.), an acute leukemia T-cell line, were maintained in the same medium with the addition of 10 mM 4-(2-hydroxyethyl)-1-piperazineethanesulfonic acid (HEPES).
A series of experiments were conducted to quantify the uptake of the ^111In-labeled parent SHAL (DvLPBaPPP)2LLDo and its hexa-arginine analog (DvLPBaPPP)2LArg6AcLLDo by Raji cells, a cell line that has been previously shown to express the HLA-DR10 variant. The assays were conducted using aliquots containing 10^6 cells suspended in 150 μl of PBS with 5% bovine serum albumin (BSA). Aliquots of cells were treated with 0.1, 1, 5, 10 or 25 ng of ^111In-labeled (DvLPBaPPP)2LLDo or (DvLPBaPPP)2LArg6AcLLDo for one hour at both 4° C. and 22° C. The tubes containing the treated cells were centrifuged to separate the cell pellet from the supernatant and the two fractions were counted in a calibrated gamma well counter to determine the amount of bound and free SHAL. Half of the cell pellets were washed twice with PBS and incubated at 22° C. for 15 min before centrifuging them again. The pooled washes and washed cell pellets were subsequently counted in the gamma well counter to assess how much of the bound SHAL could be removed by washing.
In vitro cell binding experiments were conducted using ^111In-labeled parent SHAL and the hexa-arginine SHAL analog to quantify SHAL uptake and to evaluate the effect of adding the hexa-arginine tag. Uptake was assessed using Raji cells, a lymphoma cell line expressing HLA-DR10. Aliquots containing 10^6 cells were incubated with increasing amounts of SHAL containing ^111In labeled SHAL as a tracer, and cell-associated ^111In was measured before and after washing the cell pellets.

[2] = tested on: Raji human HLA-DR10 expressing lymphoma cells; assay: Cytotoxicity assay (trypan blue) in Raji cell culture; type: cell-based
Protocol: Raji cells harvested in log growth phase were centrifuged, resuspended in fresh media and counted in 10% trypan-blue dye to determine initial and subsequent viability, as previously described (West et al. (2006) Cancer Biother. Radiopharm., 21: 645-654). When untreated, cells continued to multiply and nonviable cells, initially <5% of total cells, remained so over the course of the assays. To titrate cytotoxic activity, biotinylated tridentate SHAL at concentrations ranging between 0 and 7 nM (pm/ml media) was incubated with 0.5×10^6 cells/ml at 37° C. in a 5% CO2, humidified atmosphere (NAPCO, Portland, Oreg.). After 1, 2 and 3 days, cells were resuspended in trypan blue dye and counted in a hemocytometer. The fractional viability and absolute number of viable and non-viable cells/ml were determined.

[3] = tested on: Raji xenografts; assay: Efficacy in mice with Raji xenografts; type: in vivo, athymic Balb/c nu/nu mice
Excerpt: Seven- to nine-week old female, athymic Balb/c nu/nu mice (Harlan Sprague Dawley, Inc., Frederick, Md.) were maintained according to University of California animal care guidelines under pathogen-free conditions and on a normal ad libitum diet. Raji or Jurkat's cells harvested in log phase and having >95% viability were implanted (6×10^6 cells) subcutaneously in the lower abdomen 3-4 days after the mice were irradiated (400 cGy) to suppress xenograft rejection. When xenografts reached 20-500 mm3 by caliper measurement, the mice were sorted by xenograft volume into 4 groups: SHAL-treated mice with Raji xenografts, SHAL-treated mice with Jurkat's xenografts, untreated mice with Raji xenografts or untreated mice with Jurkat's xenografts. Each mouse was injected with 100 μl of PBS or 100 ng DOTA-chelated tridentate SHAL i.p. on days 0, 7 and 14. Xenograft volume and survival were monitored for ≥84 days. The mice were also weighed 2-3 times each week for 4 weeks then weekly. Blood counts were measured prior to each SHAL or PBS dose and weekly for 4 weeks after the final dose using a Z Series Coulter Counter (Beckman Coulter Inc., Hialeah, Fla.) and a phase contrast microscope (Zeiss, Jena, Germany).
Xenograft volumes were calculated by the formula for hemiellipsoids (DeNardo et al. (1997) Clin. Cancer Res. 3: 71-79). […] If a xenograft became >2000 mm3, the mouse was euthanized in accordance with University of California animal care guidelines and scored as a disease-related death.
Initial analysis compared response rates by exact tests and survival times by log-rank tests for untreated Raji and Jurkat's mice and found no significant differences, so these groups were pooled for subsequent analysis. Response rates for treated Raji, treated Jurkat's and untreated mice were compared by x^2 and exact tests. Survival times were censored at 84 days for mice who had not died or been euthanized because of tumor growth before that time. Times were summarized descriptively by Kaplan-Meier curves and median survival and 95% confidence limits were obtained by the product-limit estimate. The two treated groups were compared to the untreated using a log-rank test for homogeneity across groups, followed by a proportional hazards model to estimate the effect of treatment compared to no treatment. Analyses were carried out using SAS/SAT® software (SAS Institute, Inc. SAS/STAT Version 9.0. 2004. Cary, N.C.: SAS Institute). All tests were two-sided at level 0.05.

[4] = tested on: Raji xenografts; assay: Electron microscopy of Raji xenografts after SHAL treatment; type: in vivo, mice; conditions: after 100 ng of biotinylated SHAL
Protocol: Raji xenografts (53-132 mm^3) were harvested for EM from mice, untreated (control) and 2, 4 or 24 h after 100 ng of biotinylated SHAL.

CC(=O)NC(CCCNC(=N)N)C(=O)NC(CCCNC(=N)N)C(=O)NC(CCCNC(=N)N)C(=O)NC(CCCNC(=N)N)C(=O)NC(CCCNC(=N)N)C(=O)NC(CCCNC(=N)N)C(=O)NCCCCC(NC(=O)C(CCCCNC(=O)COCCOCCNC(=O)COCCOCCNC(=O)COCCOCCNC(=O)C(CCCCNC(=O)COCCOCCNC(=O)c1ccc(NC(=O)C(CCCNC(=N)N)NC(=O)c2ccccc2)cc1)NC(=O)C(NS(=O)(=O)c1ccc(N=Nc2ccc(N(C)C)cc2)cc1)C(C)C)NC(=O)COCCOCCNC(=O)COCCOCCNC(=O)COCCOCCNC(=O)C(CCCCNC(=O)COCCOCCNC(=O)c1ccc(NC(=O)C(CCCNC(=N)N)NC(=O)c2ccccc2)cc1)NC(=O)C(NS(=O)(=O)c1ccc(N=Nc2ccc(N(C)C)cc2)cc1)C(C)C)C(=O)NC(CCCCNC(=O)CN1CCN(CC(=O)O)CCN(CC(=O)O)CCN(CC(=O)O)CC1)C(=O)O (centres unmarked) [(DvLPBaPPP)2LArg6AcLLDo]
pmoles SHAL Bound/10^6 cells unwashed ([1]; 5.3 pmoles of 111In-labeled SHAL, unwashed cell pellets): 1.300 ± 0.038 pmoles SHAL Bound/10^6 cells
pmoles SHAL Bound/10^6 cells Washed ([1]; 5.3 pmoles of 111In-labeled SHAL, washed two times with BSA/buffer): 0.876 ± 0.017 pmoles SHAL Bound/10^6 cells
SHAL remaining associated with Raji cells after washing relative to parent SHAL ([1]; 111In-labeled, after washing, listed as hexa-arginine SHAL): Three fold more; also recorded: three times
SHAL bound by Raji cells relative to parent SHAL ([1]; 111In-labeled, listed as hexa-arginine SHAL): twice as much
SHAL bound by Raji cells relative to parent SHAL ([1]; 111In-labeled, listed as hexa-arginine SHAL analog): two fold more
proportion of SHAL retained by the cells after washing ([1]; Raji cells, after washing): 67%
Percent SHAL Retained ([1]; after washing two times): 67%
amount of residualized SHAL ([1]; highest concentration tested): ~1.1×10^6 SHAL molecules per cell

CC(C)C(NS(=O)(=O)c1ccc(N=Nc2ccc(N(C)C)cc2)cc1)C(=O)NCCOCCOCC(=O)NC(CCCCNC(=O)C(CCCCNC(=O)CC(=O)Nc1ccccc1Oc1ncc(C(F)(F)F)cc1Cl)NC(=O)COCCOCCNC(=O)c1ccc(N2CCN(Cc3ccc(Cl)cc3)CC2)c([N+](=O)[O-])c1)C(=O)NCCOCCOCC(=O)NC(CCCCNC(=O)CN1CCN(CC(=O)O)CCN(CC(=O)O)CCN(CC(=O)O)CC1)C(=O)O (centres unmarked) [tridentate SHAL]
threshold concentration for cytotoxic activity ([2]; Raji cell culture): 0.7 nM
IC50 ([2]; Raji cell culture, read-out: IC50 concentration for cytotoxic activity): 2.5 nM
threshold SHAL cytotoxic concentration ([2]; biotinylated tridentate SHAL, determined at 2 days): 0.7 nM (pm/ml media)
IC50 ([2]; biotinylated tridentate SHAL, determined at 2 days, read-out: IC50 SHAL cytotoxic concentration): 2.5 nM
ORR (overall response rate) ([3]; 100 ng DOTA-chelated tridentate SHAL i.p. days 0, 7 and 14): 77%
Cure ([3]; 100 ng DOTA-chelated tridentate SHAL i.p. days 0, 7 and 14, censored at 84 days): 69%
overall survival (FIG. 31) ([3]; 100 ng SHAL i.p. once weekly for 3 consecutive weeks): longest survival
median survival time ([3]; 100 ng SHAL i.p. weekly x3, censored at 84 days): not estimable
xenograft response in one mouse (FIG. 30) ([3]; by three weeks after the initial 100 ng dose i.p.): completely regressed
persistence of cures ([3]; cures at 84 days): persisted over a 210-day observation time
reduction in hazard of death ([3]; treated Raji mice compared to untreated and treated Jurkat's mice, proportional hazards model): 85%
time at which regression began after initial SHAL treatment ([3]; treated Raji xenografts): ~7 days
time to complete remission after initial SHAL treatment ([3]; treated Raji xenografts): ~30 days
electron microscopy findings in xenograft cells [4]: highly condensed nuclear chromatin and fragmented organelles
electron microscopy findings in xenograft cells ([4]; listed as SHAL): condensed and fragmented chromatin and loss of cytoplasmic structures consistent with autophagic death
